System: peroxide level in the skin
Test: TBA test of peroxide level in skin of adult mice after topical application
Type: in vivo
Settings: 0.1% dissolved in Oil of Olay, similar experiments
Source text: Samples of lotions and appropriate controls were applied to mice or rat skin for a fixed period. The application was done once a day. Experiments were terminated by killing the animal, peeling the skin and freezing it in liquid nitrogen. Samples of the frozen skin were homogenized in 0.2M phosphate buffer, pH 6.5. After centrifugation, the supernatant was collected and analyzed for the peroxide value using the TBA (thiobarbituric acid) test as described by Sinnhuber et al, Food Res. 23: 620 (1958). In the experiments which follow, newborn (hairless) rats were used. It is generally considered that the penetration through the skin of newborn rats is better than in adult rats, since at this stage they have not yet developed any fur.
In these experiments adult mice (2 months old) were treated as described in Example 2. The grown mice were shaved before applying the lotions to the skin.
In this experiment the antioxidant was dissolved in Oil of Olay. Mice were sacrificed after 21 days.

Cc1cc(C(C)(C)C)c(O)c(C(C)(C)C)c1 [BHT]
reduction of the level of peroxides: no reduction of the level of peroxides was observed

COc1ccc(O)c(C(C)(C)C)c1 [BHA]
reduction of the level of peroxides: no reduction of the level of peroxides was observed

Cc1c(C)c2c(c(C)c1O)CCC(C)(CCCC(C)CCCC(C)CCCC(C)C)O2 (stereo not drawn) [alpha tocopherol]
reduction of the level of peroxides: no reduction of the level of peroxides was observed

From US4986985A, “Method of treating skin virus infections” (Bar Ilan University, priority 1987, dated 1991)
